In paper PMC4769319, “Cohesin Releases DNA through Asymmetric ATPase-Driven Ring Opening” (Molecular Cell, 2016):

Target: T1, Smc1/Smc3 heterodimer with Scc1-C (cohesin) (Saccharomyces cerevisiae, UniProt P32908+P47037, P32908:K39I, form not given)
T1 construct: N-terminal tags; Sf9 insect cells; fluorescently labelled for MST; with Sister chromatid cohesion protein 1
T1 sequence (P32908 1-1225 K39I): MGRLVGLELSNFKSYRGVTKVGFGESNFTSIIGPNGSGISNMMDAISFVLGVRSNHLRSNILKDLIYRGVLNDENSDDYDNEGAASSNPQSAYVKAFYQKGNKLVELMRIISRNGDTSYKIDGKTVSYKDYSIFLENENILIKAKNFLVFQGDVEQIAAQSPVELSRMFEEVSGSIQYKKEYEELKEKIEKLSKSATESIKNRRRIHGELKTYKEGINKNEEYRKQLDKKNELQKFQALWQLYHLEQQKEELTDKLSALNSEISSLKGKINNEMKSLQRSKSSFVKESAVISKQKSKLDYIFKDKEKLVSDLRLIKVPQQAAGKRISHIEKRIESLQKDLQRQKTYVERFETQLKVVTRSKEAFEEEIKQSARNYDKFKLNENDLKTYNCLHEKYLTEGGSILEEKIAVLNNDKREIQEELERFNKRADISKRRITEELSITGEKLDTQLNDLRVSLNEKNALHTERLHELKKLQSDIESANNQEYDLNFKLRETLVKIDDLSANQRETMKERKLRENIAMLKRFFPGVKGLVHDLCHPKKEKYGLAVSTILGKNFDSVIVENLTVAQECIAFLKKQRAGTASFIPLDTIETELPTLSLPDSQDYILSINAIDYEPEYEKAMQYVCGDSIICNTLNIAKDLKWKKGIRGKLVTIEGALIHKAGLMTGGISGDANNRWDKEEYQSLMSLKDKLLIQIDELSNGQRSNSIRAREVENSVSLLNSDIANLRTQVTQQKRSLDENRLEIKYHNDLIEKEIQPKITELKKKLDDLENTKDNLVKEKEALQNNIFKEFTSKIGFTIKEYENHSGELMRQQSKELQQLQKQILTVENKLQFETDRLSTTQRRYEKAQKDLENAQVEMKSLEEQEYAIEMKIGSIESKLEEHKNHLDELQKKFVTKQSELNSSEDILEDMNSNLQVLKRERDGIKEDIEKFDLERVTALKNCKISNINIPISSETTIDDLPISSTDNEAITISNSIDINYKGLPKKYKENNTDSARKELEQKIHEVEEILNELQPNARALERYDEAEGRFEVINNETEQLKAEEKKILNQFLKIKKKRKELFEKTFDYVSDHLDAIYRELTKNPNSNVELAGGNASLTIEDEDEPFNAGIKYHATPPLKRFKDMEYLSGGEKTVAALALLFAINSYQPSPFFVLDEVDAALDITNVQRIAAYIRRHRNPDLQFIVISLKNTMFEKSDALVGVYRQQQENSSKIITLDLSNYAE
T1 sequence (P47037 1-1230): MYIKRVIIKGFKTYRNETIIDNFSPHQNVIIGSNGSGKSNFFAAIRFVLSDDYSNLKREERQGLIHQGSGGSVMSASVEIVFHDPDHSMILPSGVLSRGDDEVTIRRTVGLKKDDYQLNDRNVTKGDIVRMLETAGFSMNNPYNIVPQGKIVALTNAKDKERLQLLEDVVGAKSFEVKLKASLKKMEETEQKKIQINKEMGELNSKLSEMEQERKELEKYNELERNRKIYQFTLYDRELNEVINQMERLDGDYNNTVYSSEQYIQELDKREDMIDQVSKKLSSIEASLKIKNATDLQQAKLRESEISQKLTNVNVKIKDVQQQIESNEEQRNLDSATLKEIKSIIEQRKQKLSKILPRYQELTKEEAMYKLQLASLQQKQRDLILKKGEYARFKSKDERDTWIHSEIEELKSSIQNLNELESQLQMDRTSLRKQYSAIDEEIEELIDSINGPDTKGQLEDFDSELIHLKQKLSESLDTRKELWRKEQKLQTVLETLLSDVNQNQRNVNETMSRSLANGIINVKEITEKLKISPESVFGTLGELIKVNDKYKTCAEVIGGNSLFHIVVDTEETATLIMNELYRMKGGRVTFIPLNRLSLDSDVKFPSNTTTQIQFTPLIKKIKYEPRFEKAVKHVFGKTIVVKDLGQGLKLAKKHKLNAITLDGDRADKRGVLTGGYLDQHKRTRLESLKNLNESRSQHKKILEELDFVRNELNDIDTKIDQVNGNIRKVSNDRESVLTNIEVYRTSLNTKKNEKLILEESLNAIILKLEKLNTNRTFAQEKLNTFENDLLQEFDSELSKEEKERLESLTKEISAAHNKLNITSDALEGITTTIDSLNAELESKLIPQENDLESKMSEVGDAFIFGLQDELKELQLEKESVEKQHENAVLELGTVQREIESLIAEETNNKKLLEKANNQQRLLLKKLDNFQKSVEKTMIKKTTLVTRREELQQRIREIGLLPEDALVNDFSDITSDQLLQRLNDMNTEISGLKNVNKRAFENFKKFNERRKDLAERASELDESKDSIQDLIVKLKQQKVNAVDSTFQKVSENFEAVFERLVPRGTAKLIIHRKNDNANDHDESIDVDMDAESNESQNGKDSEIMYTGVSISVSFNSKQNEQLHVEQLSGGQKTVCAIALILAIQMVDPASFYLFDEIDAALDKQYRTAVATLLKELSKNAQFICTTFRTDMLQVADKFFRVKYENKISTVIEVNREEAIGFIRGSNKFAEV
T1 sequence (Q12158 1-566 partner): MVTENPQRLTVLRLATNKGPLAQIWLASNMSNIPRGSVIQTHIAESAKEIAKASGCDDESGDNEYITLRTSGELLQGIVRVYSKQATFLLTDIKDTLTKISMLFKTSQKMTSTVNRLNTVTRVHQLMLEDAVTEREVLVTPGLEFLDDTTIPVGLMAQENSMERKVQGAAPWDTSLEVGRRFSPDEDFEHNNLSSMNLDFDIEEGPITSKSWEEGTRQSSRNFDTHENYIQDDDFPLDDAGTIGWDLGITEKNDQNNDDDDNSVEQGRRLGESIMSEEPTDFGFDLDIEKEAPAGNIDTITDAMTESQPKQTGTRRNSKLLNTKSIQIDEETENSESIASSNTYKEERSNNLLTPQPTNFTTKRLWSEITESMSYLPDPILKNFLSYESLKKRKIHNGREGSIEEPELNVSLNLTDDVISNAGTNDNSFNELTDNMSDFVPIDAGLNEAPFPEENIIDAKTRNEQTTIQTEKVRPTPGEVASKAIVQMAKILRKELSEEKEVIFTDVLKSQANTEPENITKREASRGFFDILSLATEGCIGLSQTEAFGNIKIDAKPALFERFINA
Assay: microscale thermophoresis
Conditions: fluorescently labelled protein; Smc1 co-purified with Scc1-C, plus Smc3; binding abrogated

For `Nc1ncnc2c1ncn2[C@@H]1O[C@H](COP(=O)(O)OP(=O)(O)O)[C@@H](O)[C@H]1O` [ADP], the microscale thermophoresis was “each of the Walker A mutations efficiently abrogated binding to ATP and ADP”.
With `Nc1ncnc2c1ncn2[C@@H]1O[C@H](COP(=O)(O)OP(=O)(O)OP(=O)(O)O)[C@@H](O)[C@H]1O` [ATP] the microscale thermophoresis was “each of the Walker A mutations efficiently abrogated binding to ATP and ADP”.
